Assay results from article PMC9572811, “Synthesis of Novel Benzimidazole-Based Thiazole Derivatives as Multipotent Inhibitors of α-Amylase and α-Glucosidase: In Vitro Evaluation along with Molecular Docking Study” (Molecules, 2022).
Like-named read-outs stand apart in the source and are kept apart here.

Assays:
α-amylase = target: T1, α-amylase (Sus scrofa, UniProt P00690); assay: α-amylase inhibition assay; format: biochemical, Porcine
T1 sequence (P00690 16-511): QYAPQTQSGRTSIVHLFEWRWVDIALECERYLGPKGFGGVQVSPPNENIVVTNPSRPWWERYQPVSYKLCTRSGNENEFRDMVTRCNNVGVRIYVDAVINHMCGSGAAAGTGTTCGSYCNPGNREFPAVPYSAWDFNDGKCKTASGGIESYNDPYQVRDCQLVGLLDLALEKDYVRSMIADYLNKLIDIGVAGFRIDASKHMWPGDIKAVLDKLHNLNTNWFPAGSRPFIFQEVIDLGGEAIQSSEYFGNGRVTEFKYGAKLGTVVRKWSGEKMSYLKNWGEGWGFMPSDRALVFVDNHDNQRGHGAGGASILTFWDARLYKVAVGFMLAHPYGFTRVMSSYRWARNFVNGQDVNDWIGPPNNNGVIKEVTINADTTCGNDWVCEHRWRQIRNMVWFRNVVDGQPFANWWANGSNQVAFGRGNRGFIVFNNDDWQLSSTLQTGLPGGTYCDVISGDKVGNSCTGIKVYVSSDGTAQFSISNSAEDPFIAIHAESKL

[1] = in vitro, porcine pancreatic α-amylase, starch substrate, acarbose as standard

O=[N+]([O-])c1ccc(/C(CSc2nc3ccccc3[nH]2)=N\Nc2nc(-c3ccc(Cl)c(Cl)c3)cs2)cc1 [Compound 1]
melting point: 206 to 207 °C
IC50 (α-amylase): 2200 ± 100 nM

O=[N+]([O-])c1ccc(C(CSc2nc3ccccc3[nH]2)=NNc2nc(-c3ccc(F)cc3)cs2)cc1 [Compound 3]
melting point: 199 to 200 °C
IC50 (α-amylase; [1]): 1300 ± 50 nM

O=[N+]([O-])c1ccc(C(CSc2nc3ccccc3[nH]2)=NNc2nc(-c3ccccc3F)cs2)cc1 [Compound 4]
IC50 (α-amylase; [1]): 1900 ± 100 nM
